{
  "source": "paper PMC10461229",
  "about": "(Journal of Medicinal Chemistry, 2023)",
  "data": [
    {"tested_on": "wild-type (WT) Mtb Erdman", "assay": "microbe, parasite or virus in culture", "format": "cell-based, Mycobacterium tuberculosis", "details": "Mycobacterium tuberculosis, ERDMAN, read-out: MABA mean IC50 ± SD", "units": {"IC50": "µM"}, "values": [
      {"smiles": "O=C(O)C1CSc2c(C3CC3)c(CSc3nnc(-c4cccc5ccccc45)o3)cc(=O)n21", "note": "(racemic) [Compound 8a, (±) 8-Cyclopropyl-7-(((5-(naphthalen-1-yl)-1,3,4-oxadiazol-2-yl)thio)methyl)-5-oxo-2,3-dihydro-5H-thiazolo[3,2-a]pyridine-3-carboxylic Acid]", "IC50": "12.6 ± 2.16"},
      {"smiles": "O=C(O)C1CSc2c(C3CC3)c(CSc3nnc(Cc4cccc5ccccc45)o3)cc(=O)n21", "note": "(racemic) [Compound 8c, (±) 8-Cyclopropyl-7-(((5-(naphthalen-1-ylmethyl)-1,3,4-oxadiazol-2-yl)thio)methyl)-5-oxo-2,3-dihydro-5H-thiazolo[3,2-a]pyridine-3-carboxylic Acid]", "IC50": "> 25"},
      {"smiles": "O=C(O)C1CSc2c(C3CC3)c(CSc3nnc(-c4ccc5ccccc5c4)o3)cc(=O)n21", "note": "(racemic) [Compound 8d, (±) 8-Cyclopropyl-7-(((5-(naphthalen-2-yl)-1,3,4-oxadiazol-2-yl)thio)methyl)-5-oxo-2,3-dihydro-5H-thiazolo[3,2-a]pyridine-3-carboxylic Acid]", "IC50": 3.5},
      {"smiles": "O=C(O)C1CSc2c(C3CC3)c(CSc3nnc(Cc4ccc5ccccc5c4)o3)cc(=O)n21", "note": "(racemic) [Compound 8e, (±) 8-Cyclopropyl-7-(((5-(naphthalen-2-ylmethyl)-1,3,4-oxadiazol-2-yl)thio)methyl)-5-oxo-2,3-dihydro-5H-thiazolo[3,2-a]pyridine-3-carboxylic Acid]", "IC50": "> 25"},
      {"smiles": "O=C(O)C1CSc2c(C3CC3)c(CSc3nnc(-c4ccc([N+](=O)[O-])cc4)o3)cc(=O)n21", "note": "(racemic) [Compound 8g, (±) 8-Cyclopropyl-7-(((5-(4-nitrophenyl)-1,3,4-oxadiazol-2-yl)thio)methyl)-5-oxo-2,3-dihydro-5H-thiazolo[3,2-a]pyridine-3-carboxylic Acid]", "IC50": "> 25"},
      {"smiles": "COc1cccc(-c2nnc(SCc3cc(=O)n4c(c3C3CC3)SCC4C(=O)O)o2)c1", "note": "(racemic) [Compound 8h, (±) 8-Cyclopropyl-7-(((5-(3-methoxyphenyl)-1,3,4-oxadiazol-2-yl)thio)methyl)-5-oxo-2,3-dihydro-5H-thiazolo[3,2-a]pyridine-3-carboxylic Acid]", "IC50": "> 25"},
      {"smiles": "O=C(O)C1CSc2c(C3CC3)c(CSc3nnc(-c4ccncc4)o3)cc(=O)n21", "note": "(racemic) [Compound 8i, (±) 8-Cyclopropyl-5-oxo-7-(((5-(pyridin-4-yl)-1,3,4-oxadiazol-2-yl)thio)methyl)-2,3-dihydro-5H-thiazolo[3,2-a]pyridine-3-carboxylic Acid]", "IC50": "> 25"},
      {"smiles": "O=C(O)C1CSc2c(C3CC3)c(CSc3nnc(-c4cccs4)o3)cc(=O)n21", "note": "(racemic) [Compound 8j, (±) 8-Cyclopropyl-5-oxo-7-(((5-(thiophen-2-yl)-1,3,4-oxadiazol-2-yl)thio)methyl)-2,3-dihydro-5H-thiazolo[3,2-a]pyridine-3-carboxylic Acid]", "IC50": "> 25"},
      {"smiles": "O=C(O)C1CSc2c(C3CC3)c(CSc3nnc(-c4ccco4)o3)cc(=O)n21", "note": "(racemic) [Compound 8k, (±) 8-Cyclopropyl-7-(((5-(furan-2-yl)-1,3,4-oxadiazol-2-yl)thio)methyl)-5-oxo-2,3-dihydro-5H-thiazolo[3,2-a]pyridine-3-carboxylic Acid]", "IC50": "> 25"},
      {"smiles": "O=C(O)C1CSc2c(C3CC3)c(CSc3nnc(COc4ccc(F)cc4)o3)cc(=O)n21", "note": "(racemic) [Compound 8l, (±) 8-Cyclopropyl-7-(((5-((4-fluorophenoxy)methyl)-1,3,4-oxadiazol-2-yl)thio)methyl)-5-oxo-2,3-dihydro-5H-thiazolo[3,2-a]pyridine-3-carboxylic Acid]", "IC50": "> 25"},
      {"smiles": "O=C(O)C1CSc2c(C3CC3)c(-c3nc4ccccc4[nH]3)cc(=O)n21", "note": "(racemic) [Compound 10, (±) 7-(1H-benzo[d]imidazole-2-yl)-8-cyclopropyl-5-oxo-2,3-dihydro-5H-thiazolo[3,2-a]pyridine-3-carboxylic Acid]", "IC50": "> 25"},
      {"smiles": "O=C(O)C1CSc2c(C3CC3)c(-c3nc4ccccc4o3)cc(=O)n21", "note": "(racemic) [Compound 13, (±) 7-(Benzo[d]oxazol-2-yl)-8-cyclopropyl-5-oxo-2,3-dihydro-5H-thiazolo[3,2-a]pyridine-3-carboxylic Acid]", "IC50": "> 25"},
      {"smiles": "O=C(O)C1CSc2c(C3CC3)c(-c3cn(-c4cccc5ccccc45)nn3)cc(=O)n21", "note": "(racemic) [Compound 15a, (±) 8-Cyclopropyl-7-(1-(naphthalen-1-yl)-1H-1,2,3-triazol-4-yl)-5-oxo-2,3-dihydro-5H-thiazolo[3,2-a]pyridine-3-carboxylic Acid]", "IC50": "> 25"},
      {"smiles": "O=C(O)C1CSc2c(C3CC3)c(-c3cn(-c4cccc(C(F)(F)F)c4)nn3)cc(=O)n21", "note": "(racemic) [Compound 15b, (±) 8-Cyclopropyl-5-oxo-7-(1-(3-(trifluoromethyl)phenyl)-1H-1,2,3-triazol-4-yl)-2,3-dihydro-5H-thiazolo[3,2-a]pyridine-3-carboxylic Acid]", "IC50": "> 25"},
      {"smiles": "O=C(O)C1CSc2c(C3CC3)c(-c3cn(-c4ccc5ccccc5c4)nn3)cc(=O)n21", "note": "(racemic) [Compound 15c, (±) 8-Cyclopropyl-7-(1-(naphthalen-2-yl)-1H-1,2,3-triazol-4-yl)-5-oxo-2,3-dihydro-5H-thiazolo[3,2-a]pyridine-3-carboxylic Acid]", "IC50": "7.37 ± 0.83"},
      {"smiles": "O=C(O)C1CSc2c(C3CC3)c(-c3cc(-c4cccc5ccccc45)no3)cc(=O)n21", "note": "(racemic) [Compound 17a, (±) 8-Cyclopropyl-7-(3-(naphthalen-1-yl)isoxazol-5-yl)-5-oxo-2,3-dihydro-5H-thiazolo[3,2-a]pyridine-3-carboxylic Acid]", "IC50": "1.86 ± 1.13"},
      {"smiles": "O=C(O)C1CSc2c(C3CC3)c(-c3cc(-c4cccc(C(F)(F)F)c4)no3)cc(=O)n21", "note": "(racemic) [Compound 17b, (±) 8-Cyclopropyl-5-oxo-7-(3-(3-(trifluoromethyl)phenyl)isoxazol-5-yl)-2,3-dihydro-5H-thiazolo[3,2-a]pyridine-3-carboxylic Acid]", "IC50": "3.04 ± 0.58"},
      {"smiles": "O=C(O)C1CSc2c(C3CC3)c(-c3cc(C4CC4)no3)cc(=O)n21", "note": "(racemic) [Compound 17c, (±) 8-Cyclopropyl-7-(3-cyclopropylisoxazol-5-yl)-5-oxo-2,3-dihydro-5H-thiazolo[3,2-a]pyridine-3-carboxylic Acid]", "IC50": "> 25"},
      {"smiles": "O=C(O)C1CSc2c(C3CC3)c(-c3cc(C4CCCCC4)no3)cc(=O)n21", "note": "(racemic) [Compound 17d, (±) 7-(3-Cyclohexylisoxazol-5-yl)-8-cyclopropyl-5-oxo-2,3-dihydro-5H-thiazolo[3,2-a]pyridine-3-carboxylic Acid]", "IC50": "> 25"},
      {"smiles": "COc1ccc(-c2cc(-c3cc(=O)n4c(c3C3CC3)SCC4C(=O)O)on2)cc1", "note": "(racemic) [Compound 17e, (±) 8-Cyclopropyl-7-(3-(4-methoxyphenyl)isoxazol-5-yl)-5-oxo-2,3-dihydro-5H-thiazolo[3,2-a]pyridine-3-carboxylic Acid]", "IC50": "2.62 ± 0.28"},
      {"smiles": "O=C(O)C1CSc2c(C3CC3)c(-c3cc(-c4ccc([N+](=O)[O-])cc4)no3)cc(=O)n21", "note": "(racemic) [Compound 17f, (±) 8-Cyclopropyl-7-(3-(4-nitrophenyl)isoxazol-5-yl)-5-oxo-2,3-dihydro-5H-thiazolo[3,2-a]pyridine-3-carboxylic Acid]", "IC50": "9.27 ± 0.62"},
      {"smiles": "O=C(O)C1CSc2c(C3CC3)c(-c3cc(-c4c5ccccc5cc5ccccc45)no3)cc(=O)n21", "note": "(racemic) [Compound 17i, (±) 7-(3-(Anthracen-9-yl)isoxazol-5-yl)-8-cyclopropyl-5-oxo-2,3-dihydro-5H-thiazolo[3,2-a]pyridine-3-carboxylic Acid]", "IC50": "1.56 ± 0.31"},
      {"smiles": "CC(C)(C)c1cc(-c2cc(-c3cc(=O)n4c(c3C3CC3)SCC4C(=O)O)on2)cc(C(C)(C)C)c1", "note": "(racemic) [Compound 17k, (±) 8-Cyclopropyl-7-(3-(3,5-di-tert-butylphenyl)isoxazol-5-yl)-5-oxo-2,3-dihydro-5H-thiazolo[3,2-a]pyridine-3-carboxylic Acid]", "IC50": "3.13 ± 0.16"},
      {"smiles": "O=C(O)C1CSc2c(C3CC3)c(-c3cc(-c4cc(F)cc(F)c4)no3)cc(=O)n21", "note": "(racemic) [Compound 17l, (±) 8-Cyclopropyl-7-(3-(3,5-difluorophenyl)isoxazol-5-yl)-5-oxo-2,3-dihydro-5H-thiazolo[3,2-a]pyridine-3-carboxylic Acid]", "IC50": "23.6 ± 1.51"},
      {"smiles": "O=C(O)C1CSc2c(C3CC3)c(-c3cc(-c4ccc(F)c5ccccc45)no3)cc(=O)n21", "note": "(racemic) [Compound 17m, (±) 8-Cyclopropyl-7-(3-(4-fluoronaphthalen-1-yl)isoxazol-5-yl)-5-oxo-2,3-dihydro-5H-thiazolo[3,2-a]pyridine-3-carboxylic Acid]", "IC50": "4 ± 0.67"},
      {"smiles": "O=C(O)C1CSc2c(C3CC3)c(-c3cc(-c4cccs4)no3)cc(=O)n21", "note": "(racemic) [Compound 17n, (±) 8-Cyclopropyl-5-oxo-7-(3-(thiophen-2-yl)isoxazol-5-yl)-2,3-dihydro-5H-thiazolo[3,2-a]pyridine-3-carboxylic Acid]", "IC50": "> 25"},
      {"smiles": "O=C(O)C1CSc2c(C3CC3)c(-c3cc(-c4ccc5c(c4)OCO5)no3)cc(=O)n21", "note": "(racemic) [Compound 17o, (±) 7-(3-(Benzo[d][1,3]dioxol-5-yl)isoxazol-5-yl)-8-cyclopropyl-5-oxo-2,3-dihydro-5H-thiazolo[3,2-a]pyridine-3-carboxylic Acid]", "IC50": "2.02 ± 0.46"},
      {"smiles": "O=C(O)C1CSc2c(C3CC3)c(-c3cc(-c4ccnc5ccccc45)no3)cc(=O)n21", "note": "(racemic) [Compound 17p, (±) 8-Cyclopropyl-5-oxo-7-(3-(quinolin-4-yl)isoxazol-5-yl)-2,3-dihydro-5H-thiazolo[3,2-a]pyridine-3-carboxylic Acid]", "IC50": "11 ± 1.48"},
      {"smiles": "O=C(O)C1CSc2c(C3CC3)c(-c3cc(-c4cccc5ccccc45)on3)cc(=O)n21", "note": "(racemic) [Compound 19a, (±) 8-Cyclopropyl-7-(5-(naphthalen-1-yl)isoxazol-3-yl)-5-oxo-2,3-dihydro-5H-thiazolo[3,2-a]pyridine-3-carboxylic Acid]", "IC50": "3.9 ± 1.43"},
      {"smiles": "O=C(O)C1CSc2c(C3CC3)c(-c3cc(-c4cccc(C(F)(F)F)c4)on3)cc(=O)n21", "note": "(racemic) [Compound 19b, (±) 8-Cyclopropyl-5-oxo-7-(5-(3-(trifluoromethyl)phenyl)isoxazol-3-yl)-2,3-dihydro-5H-thiazolo[3,2-a]pyridine-3-carboxylic Acid]", "IC50": "5.09 ± 1.3"}
    ]},
    {"tested_on": "wild-type (WT) Mtb Erdman", "assay": "microbe, parasite or virus in culture", "format": "cell-based, Mycobacterium tuberculosis", "details": "read-out: MABA mean IC50 ± SD", "units": {"IC50": "µM"}, "values": [
      {"smiles": "O=C(O)C1CSc2c(C3CC3)c(CSc3nnc(-c4ccc5ccccc5c4)o3)cc(=O)n21", "note": "(racemic) [Compound 8d, (±) 8-Cyclopropyl-7-(((5-(naphthalen-2-yl)-1,3,4-oxadiazol-2-yl)thio)methyl)-5-oxo-2,3-dihydro-5H-thiazolo[3,2-a]pyridine-3-carboxylic Acid]", "IC50": "3.53 ± 1.9"}
    ]}
  ]
}
